Reference: ChEMBL document CHEMBL1201862, “PubChem BioAssay data set” (2004)
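Cultured in 96-well plates, cells were exposed to test compound for 48 hours across five concentrations. Abbreviation: GI50, concentration required for 50% inhibition of growth.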 Calls of active or inactive are those of the source. Rule as the data show it: active = GI50 up to about 1.1 µM and inactive = higher.

Assays:
Test in all cases: NCI anticancer screen, dose series, 48 h
T47D = test system: T47D
SW-620 = test system: SW-620
UO-31 = test system: UO-31
U-251 = test system: U-251
EKVX = test system: EKVX
M14 = test system: M14
SN12C = test system: SN12C
MDA-MB-435 = test system: MDA-MB-435
NCI-H226 = test system: NCI-H226
NCI-H460 = test system: NCI-H460
HL-60 = test system: HL-60
SR = test system: SR
DU-145 = test system: DU-145
RPMI-8226 = test system: RPMI-8226
KM12 = test system: KM12
HCT-15 = test system: HCT-15
SK-MEL-28 = test system: SK-MEL-28
HT-29 = test system: HT-29
MDA-N = test system: MDA-N
BT-549 = test system: BT-549

| SMILES | GI50 (T47D) | GI50 (SW-620) | GI50 (UO-31) | GI50 (U-251) | GI50 (EKVX) | GI50 (M14) | GI50 (SN12C) | GI50 (MDA-MB-435) | GI50 (NCI-H226) | GI50 (NCI-H460) | GI50 (HL-60) | GI50 (SR) | GI50 (DU-145) | GI50 (RPMI-8226) | GI50 (KM12) | GI50 (HCT-15) [µM] | GI50 (SK-MEL-28) | GI50 (HT-29) | GI50 (MDA-N) | GI50 (BT-549) |
| --- | --- | --- | --- | --- | --- | --- | --- | --- | --- | --- | --- | --- | --- | --- | --- | --- | --- | --- | --- | --- |
| O=C(c1ccccc1)c1ccc2c(c1)NC(=O)c1ccccc1SSc1ccccc1C(=O)N2 | > 100 µM (inactive) | > 100 µM (inactive) | > 100 µM (inactive) | > 100 µM (inactive) | > 100 µM (inactive) | > 100 µM (inactive) | > 100 µM (inactive) | > 100 µM (inactive) | > 100 µM (inactive) | > 100 µM (inactive) | > 100 µM (inactive) | 85.5 µM (inactive) | > 100 µM (inactive) | > 100 µM (inactive) | > 100 µM (inactive) | > 100 | > 100 µM (inactive) | > 100 µM (inactive) | > 100 µM (inactive) | > 100 µM (inactive) |
| CCOC(=O)N1CCN(c2c(C)nc(C)nc2O)CC1 | > 100 µM (inactive) | > 100 µM (inactive) | > 100 µM (inactive) | > 100 µM (inactive) | > 100 µM (inactive) | > 100 µM (inactive) | > 100 µM (inactive) | > 100 µM (inactive) | > 100 µM (inactive) | > 100 µM (inactive) | > 100 µM (inactive) | > 100 µM (inactive) | > 100 µM (inactive) | > 100 µM (inactive) | > 100 µM (inactive) | > 100 | > 100 µM (inactive) | > 100 µM (inactive) | > 100 µM (inactive) | > 100 µM (inactive) |
| CC[C@](O)(CC(=O)O[C@H]1C(=O)O[C@@H]2C[C@H]3C(C)=CC(=O)[C@@H](O)[C@]3(C)[C@H]3[C@@]4(O)OC[C@]32[C@@H]1[C@@H](C)[C@H]4O)C(C)C | < 0.01 µM (active) | < 0.01 µM (active) | < 0.0122 µM (active) | < 0.01 µM (active) | < 0.01 µM (active) | < 0.01 µM (active) | < 0.01 µM (active) | < 0.01 µM (active) | < 0.01 µM (active) | < 0.01 µM (active) | < 0.01 µM (active) | < 0.01 µM (active) | < 0.01 µM (active) | < 0.01 µM (active) | < 0.01 µM (active) | < 0.01 | < 0.01 µM (active) | < 0.01 µM (active) | < 0.01 µM (active) | < 0.01 µM (active) |
| O=[N+]([O-])c1cccc(/C=N/N=c2\ccc3ccccc3[nH]2)c1O | 0.807 µM (active) | 0.632 µM (active) | 0.335 µM (active) | 1.11 µM (active) | 1.48 µM (inactive) | 1.13 µM (inactive) | 1.53 µM (inactive) | 2.45 µM (inactive) | 2.64 µM (inactive) | 0.448 µM (active) | 0.619 µM (active) | 0.466 µM (active) | 2.26 µM (inactive) | 1.37 µM (inactive) | 1.87 µM (inactive) | 0.146 | 2.79 µM (inactive) | 0.632 µM (active) | 5.64 µM (inactive) | 3.78 µM (inactive) |
| CN(C)/C=C/C=C(/C=N/S(=O)(=O)C(F)(F)F)C1C=CN(S(=O)(=O)C(F)(F)F)C=C1 | 23.4 µM (inactive) | 38.1 µM (inactive) | 29.1 µM (inactive) | 37.6 µM (inactive) | 30.1 µM (inactive) | 36.1 µM (inactive) | 40.6 µM (inactive) | 25.8 µM (inactive) | 26 µM (inactive) | 24.3 µM (inactive) | 19.8 µM (inactive) | 30.1 µM (inactive) | 37.2 µM (inactive) | 38.3 µM (inactive) | 25 µM (inactive) | 23.4 | 91.8 µM (inactive) | 27.5 µM (inactive) | 36.7 µM (inactive) | 26.2 µM (inactive) |
| CCOC(=O)/C=C(/C(=O)OCC)n1cc(C)c(=O)n(Cc2cnnn2COCCOC(C)=O)c1=O | 6.93 µM (inactive) | 3.81 µM (inactive) | 16.7 µM (inactive) | 20.4 µM (inactive) | 14.1 µM (inactive) | 14.7 µM (inactive) | 22.1 µM (inactive) | 14.4 µM (inactive) | 17.8 µM (inactive) | 24 µM (inactive) | 3.48 µM (inactive) | 4.91 µM (inactive) | 24.5 µM (inactive) | 8.59 µM (inactive) | 21.3 µM (inactive) | 7.45 | 16.4 µM (inactive) | 13.9 µM (inactive) | 23.1 µM (inactive) | 17.5 µM (inactive) |
| O=C1O[B-](c2ccccc2)(c2ccccc2)[NH+]2CCCC12 (stereo not given) | 76.9 µM (inactive) | 63.4 µM (inactive) | 34.6 µM (inactive) | > 100 µM (inactive) | > 100 µM (inactive) | 40.5 µM (inactive) | > 100 µM (inactive) | > 100 µM (inactive) | 49 µM (inactive) | > 100 µM (inactive) | > 100 µM (inactive) | > 100 µM (inactive) | > 100 µM (inactive) | 72.8 µM (inactive) | > 100 µM (inactive) | 59.3 | 99.5 µM (inactive) | > 100 µM (inactive) | 85.1 µM (inactive) | 41.8 µM (inactive) |
| CC(=O)NC1C(OCc2ccccc2)OC(CO)C(O)C1OC(C)C(=O)NC(C)C(=O)NC(CCC(=O)NCCCNc1c2ccccc2nc2cccc([N+](=O)[O-])c12)C(N)=O (stereo not given) | 16.8 µM (inactive) | 0.229 µM (active) | 2.5 µM (inactive) | 1.6 µM (inactive) | 3.57 µM (inactive) | 1.97 µM (inactive) | 1.02 µM (active) | 1.16 µM (inactive) | 2.79 µM (inactive) | 0.258 µM (active) | 1.26 µM (inactive) | 5.48 µM (inactive) | 1.56 µM (inactive) | 0.59 µM (active) | 2.57 µM (inactive) | 1.67 | 2.58 µM (inactive) | 0.29 µM (active) | 1.25 µM (inactive) | 2.74 µM (inactive) |
| COC(=O)C1=NN2c3ccccc3CN([C@@H](C)c3ccccc3)C(=O)[C@@H]2C1 | 14.1 µM (inactive) | 87.3 µM (inactive) | 17.5 µM (inactive) | 40.7 µM (inactive) | 24.6 µM (inactive) | 16.5 µM (inactive) | 56.1 µM (inactive) | 16.6 µM (inactive) | 54.1 µM (inactive) | 58.3 µM (inactive) | 23.9 µM (inactive) | 22 µM (inactive) | 30.8 µM (inactive) | 24.5 µM (inactive) | 21.2 µM (inactive) | 31.7 | 38.7 µM (inactive) | 44.1 µM (inactive) | 28.3 µM (inactive) | 24.6 µM (inactive) |
| COc1ccc2oc(=O)c(-c3nc4ccccc4o3)cc2c1 | 58.2 µM (inactive) | > 100 µM (inactive) | > 100 µM (inactive) | > 100 µM (inactive) | > 100 µM (inactive) | > 100 µM (inactive) | > 100 µM (inactive) | 16.7 µM (inactive) | > 100 µM (inactive) | 74 µM (inactive) | 29.9 µM (inactive) | 5.25 µM (inactive) | > 100 µM (inactive) | 98.2 µM (inactive) | 27.4 µM (inactive) | 59 | > 100 µM (inactive) | > 100 µM (inactive) | 29.1 µM (inactive) | > 100 µM (inactive) |
| CC1=NN(c2cc(Cl)c(S(=O)(=O)O)cc2Cl)C2(C1)C(Cl)C(=O)N2c1nc2ccccc2s1 (stereo not given) | 66.1 µM (inactive) | > 100 µM (inactive) | 22.2 µM (inactive) | > 100 µM (inactive) | 44.9 µM (inactive) | > 100 µM (inactive) | > 100 µM (inactive) | 84.3 µM (inactive) | 53.5 µM (inactive) | > 100 µM (inactive) | > 100 µM (inactive) | 89.9 µM (inactive) | 29.3 µM (inactive) | 79.3 µM (inactive) | 97.9 µM (inactive) | > 100 | > 100 µM (inactive) | > 100 µM (inactive) | > 100 µM (inactive) | > 100 µM (inactive) |
| CSc1nc(=S)[nH]c2[nH]nc(C)c12 | > 100 µM (inactive) | > 100 µM (inactive) | > 100 µM (inactive) | > 100 µM (inactive) | > 100 µM (inactive) | > 100 µM (inactive) | > 100 µM (inactive) | > 100 µM (inactive) | > 100 µM (inactive) | > 100 µM (inactive) | > 100 µM (inactive) | 94.4 µM (inactive) | > 100 µM (inactive) | > 100 µM (inactive) | > 100 µM (inactive) | > 100 | > 100 µM (inactive) | > 100 µM (inactive) | > 100 µM (inactive) | > 100 µM (inactive) |
| CC(C)CNC(=O)O | > 100 µM (inactive) | > 100 µM (inactive) | > 100 µM (inactive) | > 100 µM (inactive) | > 100 µM (inactive) | > 100 µM (inactive) | > 100 µM (inactive) | > 100 µM (inactive) | > 100 µM (inactive) | > 100 µM (inactive) | > 100 µM (inactive) | > 100 µM (inactive) | > 100 µM (inactive) | > 100 µM (inactive) | > 100 µM (inactive) | > 100 | > 100 µM (inactive) | > 100 µM (inactive) | > 100 µM (inactive) | > 100 µM (inactive) |
| CC1(C)CC(O)C2=C(O1)C(=O)c1ncccc1C2=O (stereo not given) | 2.26 µM (inactive) | 1.87 µM (inactive) | 1.85 µM (inactive) | 1.75 µM (inactive) | 2.54 µM (inactive) | 1.96 µM (inactive) | 1.94 µM (inactive) | 1.71 µM (inactive) | 1.87 µM (inactive) | 2.52 µM (inactive) | 1.7 µM (inactive) | 2.34 µM (inactive) | 5.07 µM (inactive) | 2.48 µM (inactive) | 3.48 µM (inactive) | 4.02 | 1.69 µM (inactive) | 3.05 µM (inactive) | 1.75 µM (inactive) | 1.75 µM (inactive) |
